Experimental data as given in ChEMBL document CHEMBL1139991, “[1,3]Diazaheterofused isoindolol derivatives displaying anxiolytic-like effects on mice” (2007).

test system: Mus musculus; experiment: Anxiolytic effect in Albino ICR mouse assessed as time spent on open arms of elevated plus-maze test at 15 mg/ kg, ip; format: functional; settings: route intraperitoneal

SMILES | Activity
CSc1ccc(CC2(O)c3ccccc3C3=NCCN32)cc1 (configuration not stated) | 47.8%
CSc1ccc(CC2(O)c3ccccc3C3=NCCCN32)cc1 (configuration not stated) | 73.8%
C[S+]([O-])c1ccc(CC2(O)c3ccccc3C3=NCCCN32)cc1 (configuration not stated) | 16.3%
C[S+]([O-])c1ccc(CC2(O)c3ccccc3C3=NCCN32)cc1 (configuration not stated) | 44%
CS(=O)(=O)c1ccc(CC2(O)c3ccccc3C3=NCCN32)cc1 (configuration not stated) | 44%
COc1ccc(CC2(O)c3ccccc3C3=NCCCCN32)cc1 (configuration not stated) | -9%
OC1(Cc2ccc(F)cc2)c2ccccc2C2=NCCN21 (configuration not stated) | 22.9%
OC1(Cc2ccc(F)cc2)c2ccccc2C2=NCCCN21 (configuration not stated) | 44.7%
O=[N+]([O-])c1ccc(CC2(O)c3ccccc3C3=NCCCN32)cc1 (configuration not stated) | 59%
OC1(Cc2ccc(Cl)cc2)c2ccccc2C2=NCCN21 (configuration not stated) | 62.6%
OC1(Cc2ccc(Cl)cc2)c2ccccc2C2=NCCCN21 (configuration not stated) | 62.6%
OC1(Cc2ccc(F)cc2)c2ccccc2C2=NCCCCN21 (configuration not stated) | 33.5%
OC1(Cc2ccc(Cl)cc2)c2ccccc2C2=NCCCCN21 (configuration not stated) | 42.7%
CS(=O)(=O)c1ccc(CC2(O)c3ccccc3C3=NCCCN32)cc1 (configuration not stated) | 13.9%
O=[N+]([O-])c1ccc(CC2(O)c3ccccc3C3=NCCN32)cc1 (configuration not stated) | 36.1%
COc1cc(CC2(O)c3ccccc3C3=NCCCN32)cc(OC)c1OC (configuration not stated) | 44.2%
OC1(Cc2ccc3c(c2)OCO3)c2ccccc2C2=NCCCN21 (configuration not stated) | 48.7%
COc1ccc(CC2(O)c3ccccc3C3=NCCN32)cc1 (configuration not stated) | 48.9%
OC1(Cc2ccc3c(c2)OCO3)c2ccccc2C2=NCCN21 (configuration not stated) | 51.3%
COc1ccc(CC2(O)c3ccccc3C3=NCCCN32)cc1 (configuration not stated) | 51.8%
COc1cc(CC2(O)c3ccccc3C3=NCCN32)cc(OC)c1OC (configuration not stated) | -7.9%

test system: Mus musculus; experiment: Anxiolytic effect in Albino ICR mouse assessed as number of entries in open arms of elevated plus-maze test at 15 mg/kg, ip; format: functional; settings: route intraperitoneal

SMILES | Activity
CSc1ccc(CC2(O)c3ccccc3C3=NCCN32)cc1 (configuration not stated) | 36.3%
CSc1ccc(CC2(O)c3ccccc3C3=NCCCN32)cc1 (configuration not stated) | 66%
C[S+]([O-])c1ccc(CC2(O)c3ccccc3C3=NCCCN32)cc1 (configuration not stated) | 27.6%
C[S+]([O-])c1ccc(CC2(O)c3ccccc3C3=NCCN32)cc1 (configuration not stated) | 25.3%
CS(=O)(=O)c1ccc(CC2(O)c3ccccc3C3=NCCN32)cc1 (configuration not stated) | 27.3%
COc1ccc(CC2(O)c3ccccc3C3=NCCCCN32)cc1 (configuration not stated) | -24.4%
OC1(Cc2ccc(F)cc2)c2ccccc2C2=NCCN21 (configuration not stated) | 5.5%
OC1(Cc2ccc(F)cc2)c2ccccc2C2=NCCCN21 (configuration not stated) | 24.7%
O=[N+]([O-])c1ccc(CC2(O)c3ccccc3C3=NCCCN32)cc1 (configuration not stated) | 44.2%
OC1(Cc2ccc(Cl)cc2)c2ccccc2C2=NCCN21 (configuration not stated) | 41.9%
OC1(Cc2ccc(Cl)cc2)c2ccccc2C2=NCCCN21 (configuration not stated) | 47.4%
OC1(Cc2ccc(F)cc2)c2ccccc2C2=NCCCCN21 (configuration not stated) | 36.3%
OC1(Cc2ccc(Cl)cc2)c2ccccc2C2=NCCCCN21 (configuration not stated) | 41%
CS(=O)(=O)c1ccc(CC2(O)c3ccccc3C3=NCCCN32)cc1 (configuration not stated) | -7.3%
O=[N+]([O-])c1ccc(CC2(O)c3ccccc3C3=NCCN32)cc1 (configuration not stated) | 33.1%
COc1cc(CC2(O)c3ccccc3C3=NCCCN32)cc(OC)c1OC (configuration not stated) | 46.8%
OC1(Cc2ccc3c(c2)OCO3)c2ccccc2C2=NCCCN21 (configuration not stated) | 45.9%
COc1ccc(CC2(O)c3ccccc3C3=NCCN32)cc1 (configuration not stated) | 34.6%
OC1(Cc2ccc3c(c2)OCO3)c2ccccc2C2=NCCN21 (configuration not stated) | 44.8%
COc1ccc(CC2(O)c3ccccc3C3=NCCCN32)cc1 (configuration not stated) | 60.2%
COc1cc(CC2(O)c3ccccc3C3=NCCN32)cc(OC)c1OC (configuration not stated) | -16%
